From ChEMBL document CHEMBL4831538, “Repositioning of the Anthelmintic Drugs Bithionol and Triclabendazole as Transthyretin Amyloidogenesis Inhibitors” (J Med Chem, 2021) come the findings set out here.

The structures appear in SMILES notation. Active and inactive are the calls of the source. The rule behind the calls is not given here.

For test [1], the target named is T1, Transthyretin (Homo sapiens, UniProt P02766, V50M). Nature of the test: Binding affinity to TTR V30M mutant (unknown origin) expressed in Escherichia coli incubated for 60 mins by tryptophan intrinsic fluorescence method. Conditions: read-out: Kd(app).
The test system of test [2] is Transthyretin (Homo sapiens), P02766 [V50M]. Kind of test: (§1) Stabilization of TTR V30M mutant (unknown origin) assessed as acid-mediated protein aggregation inhibition ratio incubated for 1 week by absorbance method. Conditions: time 1.0 weeks.
The target in test [3] is T1, Transthyretin. The description is as §1.
Test [4] has as its system Transthyretin (Homo sapiens), P02766 [V50M]. Nature of the test: Stabilization of TTR V30M mutant (unknown origin) assessed as suppression of TTR tetramer dissociation at 1 to 10 uM incubated for 9 days by glutaraldehyde cross-linking assay based SDS-PAGE analysis. Conditions: dose 1-10 µM, time 9.0 day.
For test [5] the test system is unchanged. Kind of test: Stabilization of TTR V30M mutant (unknown origin) assessed as suppression of TTR tetramer dissociation at 3 uM incubated for 9 days by glutaraldehyde cross-linking assay based SDS-PAGE analysis relative to control. Conditions: time 9.0 day.
In test [6] the target is T2, Transthyretin (Homo sapiens, UniProt P02766). Nature of the test: Stabilization of wild type TTR (unknown origin) expressed in Escherichia coli assessed as reduction in methanol-induced aggregation incubated for 60 min by absorbance method.
In test [7] the test system is Transthyretin (Homo sapiens), P02766 [V142I]. Nature of the test: Stabilization of TTR V142I mutant (unknown origin) expressed in Escherichia coli assessed as reduction in trypsin-induced aggregation incubated for 3 to 4 days by absorbance method. Conditions: time 3-4 day.
Test [8] concerns the target T1, Transthyretin. Kind of test: Binding affinity to TTR V30M mutant (unknown origin) by isothermal titration calorimetry. For orientation: ITC needs no label: the signal is the heat of the interaction.
Test [9] deals with T2, Transthyretin. Kind of test: Stabilization of wild type TTR (unknown origin) expressed in Escherichia coli assessed as reduction in methanol-induced aggregation at 50 uM incubated for 60 min by absorbance method.

In general, IC50 refers to the point on the concentration scale where inhibition reaches its midpoint. Take `Oc1c(Cl)cc(Cl)cc1Sc1cc(Cl)cc(Cl)c1O` [BITHIONOL]: the Kd at Transthyretin [1] came to 1.1 µM; on Transthyretin [8] it was 0.062 µM. Besides, the Activity entry in [2] is “Dose-Dependent Effect”; in test [5], 100%; in test [7], “Dose-Dependent Effect”. For the same molecule, the figures for the IC50 on Transthyretin [3] and on Transthyretin [6] were 2.4 µM and 3 µM, respectively. Also, in test [4], the result was Active.

Take `CC(C)=COc1ccc(/C=C/C(O)c2ccc(OC=C(C)C)cc2OCC(=O)O)cc1` (stereo not drawn): the Kd on Transthyretin [1] amounted to 6.5 µM.

For `O=C(O)c1ccc2nc(-c3cc(Cl)cc(Cl)c3)oc2c1`, the Activity entry in [2] was “Dose-Dependent Effect”; in test [5] it was 100%; in [7] it was “Dose-Dependent Effect”. In addition, the outcome (in [4]; on Transthyretin [9]) was Active.

With `Cc1ccc(C(=O)c2cc(O)c(O)c([N+](=O)[O-])c2)cc1`, the Activity result was “Dose-Dependent Effect” in test [2], 100% in test [5] and “Dose-Dependent Effect” in [7]. Also, in test [4], the result was Active.

Consider `CSc1nc2cc(Cl)c(Oc3cccc(Cl)c3Cl)cc2[nH]1` [TRICLABENDAZOLE], for which the Activity entry in [2] was “Dose-Dependent Effect”; in test [5], 100%; in [7], “Dose-Dependent Effect”. In addition, the IC50 at Transthyretin [3] was 3.5 µM. Moreover, the outcome (in [4]; at Transthyretin [9]) was Active.

With `Oc1ccc(Cl)cc1Cc1cc(Cl)ccc1O`, in test [4], the outcome was Active.

As to `CC(C)c1ccc2oc3nc(N)c(C(=O)O)cc3c(=O)c2c1` [AMLEXANOX], the Kd at Transthyretin [1] was 20 µM.

Turning to `O=C(O)c1cc(-c2ccc(F)cc2F)ccc1O`, in test [2], the Activity result is “Dose-Dependent Effect”. Also, the outcome in test [4] was Active.
